Results taken from ChEMBL document CHEMBL1240532, “Spiroindolones, a potent compound class for the treatment of malaria” (Science, 2010).
In brackets after ≈: the same amount, converted by molar mass. Activity calls are given as the source filed them. The calls are words filed in the database; no cut-off is given here.

Tests used:
[1] = target: 5-hydroxytryptamine receptor 2C (Homo sapiens, UniProt P28335); assay: Binding affinity to human recombinant serotonin 5HT2C receptor
[2] = target: D(3) dopamine receptor (Homo sapiens, UniProt P35462); assay: Binding affinity to human recombinant dopamine D3 receptor
[3] = Cmax in CD1 mouse at 24.6 mg/kg, po; assay type: ADME, organism-based; set-up: dose 24.6 mg/kg, route oral; details: in vivo
[4] = target: Estrogen receptor (Homo sapiens, UniProt P03372); assay: Binding affinity to human recombinant ERalpha
Estrogen receptor, sequence (P03372 whole entry): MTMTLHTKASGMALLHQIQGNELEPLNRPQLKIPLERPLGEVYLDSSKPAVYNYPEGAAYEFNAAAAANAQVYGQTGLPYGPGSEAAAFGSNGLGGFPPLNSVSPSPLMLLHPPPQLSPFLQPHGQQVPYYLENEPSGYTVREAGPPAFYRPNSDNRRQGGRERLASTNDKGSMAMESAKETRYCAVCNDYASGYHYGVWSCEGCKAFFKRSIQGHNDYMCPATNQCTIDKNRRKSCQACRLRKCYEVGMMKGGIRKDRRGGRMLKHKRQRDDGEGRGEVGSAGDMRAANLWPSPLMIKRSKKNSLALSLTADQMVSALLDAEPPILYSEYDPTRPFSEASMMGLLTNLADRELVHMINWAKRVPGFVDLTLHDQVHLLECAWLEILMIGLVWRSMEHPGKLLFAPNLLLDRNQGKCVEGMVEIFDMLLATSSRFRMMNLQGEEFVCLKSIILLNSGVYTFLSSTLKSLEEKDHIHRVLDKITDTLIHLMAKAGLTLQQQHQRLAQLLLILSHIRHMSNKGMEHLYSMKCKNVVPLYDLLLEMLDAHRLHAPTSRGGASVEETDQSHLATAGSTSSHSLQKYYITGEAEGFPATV

[5] = target: Amine oxidase [flavin-containing] A (Homo sapiens, UniProt P21397); assay: Binding affinity to human recombinant MAOM
[6] = test system: Plasmodium berghei; assay: Antimalarial activity against Plasmodium berghei GFP ANKA infected in NMRI mice (Mus musculus) assessed as reduction in parasitaemia at 10 mg/kg, perorally administered through 0.5% MCM/0.1%solutol HS15 formulation 24 hrs post infection for 3 days measured 96 hrs post infection; assay type: functional; set-up: scale not given: the % may be the effect or the level left; details: route oral
[7] = target: Vasopressin V2 receptor (Homo sapiens, UniProt P30518); assay: Binding affinity to human recombinant vasopressin V2 receptor
Vasopressin V2 receptor, sequence (P30518 whole entry): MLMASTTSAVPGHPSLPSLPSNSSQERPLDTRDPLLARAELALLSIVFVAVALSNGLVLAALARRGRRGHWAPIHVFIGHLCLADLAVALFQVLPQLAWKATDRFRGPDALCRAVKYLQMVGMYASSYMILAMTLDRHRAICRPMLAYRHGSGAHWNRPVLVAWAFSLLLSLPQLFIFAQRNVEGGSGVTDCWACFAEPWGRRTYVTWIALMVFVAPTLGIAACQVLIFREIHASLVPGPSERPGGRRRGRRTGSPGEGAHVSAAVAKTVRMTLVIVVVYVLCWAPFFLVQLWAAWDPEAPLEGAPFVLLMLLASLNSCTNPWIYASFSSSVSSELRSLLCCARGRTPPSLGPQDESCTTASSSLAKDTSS

[8] = test system: Plasmodium falciparum; assay type: functional, organism-based; details: Dd2, 72 h, read-out: IC50
[9] = target: Estrogen receptor beta (Homo sapiens, UniProt Q92731); assay: Binding affinity to human recombinant ERbeta
[10] = target: 3',5'-cyclic-AMP phosphodiesterase 4D (Homo sapiens, UniProt Q08499); assay: Binding affinity to human recombinant PDE4D
[11] = AUC (0 to infinity) in CD1 mouse at 5.4 mg/kg, iv; assay type: ADME, organism-based; set-up: time infinity, dose 5.4 mg/kg, route intravenous; details: plasma
[12] = target: Androgen receptor (Homo sapiens, UniProt P10275); assay: Binding affinity to human recombinant androgen receptor
Androgen receptor, sequence (P10275 whole entry): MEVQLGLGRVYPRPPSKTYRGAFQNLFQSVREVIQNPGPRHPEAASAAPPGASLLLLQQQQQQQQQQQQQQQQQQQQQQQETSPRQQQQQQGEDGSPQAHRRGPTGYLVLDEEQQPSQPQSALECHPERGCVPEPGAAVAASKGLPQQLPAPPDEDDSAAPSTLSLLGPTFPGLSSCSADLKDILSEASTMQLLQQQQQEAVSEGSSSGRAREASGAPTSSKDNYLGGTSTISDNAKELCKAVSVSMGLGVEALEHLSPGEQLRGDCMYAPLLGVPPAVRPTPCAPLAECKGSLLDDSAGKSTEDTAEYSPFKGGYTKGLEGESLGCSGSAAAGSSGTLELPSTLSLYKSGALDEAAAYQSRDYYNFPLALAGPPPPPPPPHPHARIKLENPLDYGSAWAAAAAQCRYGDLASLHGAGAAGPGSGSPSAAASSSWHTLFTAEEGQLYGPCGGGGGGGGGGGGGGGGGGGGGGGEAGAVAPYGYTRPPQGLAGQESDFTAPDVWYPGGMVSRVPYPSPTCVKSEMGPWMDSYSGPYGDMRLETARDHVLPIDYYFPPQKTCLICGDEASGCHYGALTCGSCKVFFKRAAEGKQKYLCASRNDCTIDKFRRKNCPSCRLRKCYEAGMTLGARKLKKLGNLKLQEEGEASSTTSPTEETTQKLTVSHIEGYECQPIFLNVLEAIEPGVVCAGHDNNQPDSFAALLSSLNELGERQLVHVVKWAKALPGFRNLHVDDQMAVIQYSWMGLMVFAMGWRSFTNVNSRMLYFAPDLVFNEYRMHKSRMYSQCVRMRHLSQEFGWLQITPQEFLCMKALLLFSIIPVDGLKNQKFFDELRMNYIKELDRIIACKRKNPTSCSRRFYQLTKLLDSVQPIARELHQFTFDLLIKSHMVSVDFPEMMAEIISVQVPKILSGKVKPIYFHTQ

[13] = Binding affinity to rat benzodiazepine receptor
[14] = test system: Plasmodium falciparum; assay: Antimalarial activity against NITD609-resistant Plasmodium falciparum Dd2 Clone2 bearing P-type ATPase4 T418N and P990R mutations after 72 hrs by SYBR green based fluorescence assay; assay type: functional, organism-based; details: Dd2, 72 h
[15] = target: D(4) dopamine receptor (Homo sapiens, UniProt P21917); assay: Binding affinity to human recombinant dopamine D4.4 receptor
[16] = test system: Plasmodium berghei; assay: Antimalarial activity against Plasmodium berghei GFP ANKA infected in NMRI mice (Mus musculus) assessed as cure rate at 30 mg/kg, perorally administered as single dose 24 hrs post infection for 1 day measured 30 days post infection; assay type: functional; details: route oral
[17] = target: Growth hormone secretagogue receptor type 1 (Homo sapiens, UniProt Q92847); assay: Binding affinity to human recombinant Ghrelin receptor
Growth hormone secretagogue receptor type 1, sequence (Q92847 whole entry): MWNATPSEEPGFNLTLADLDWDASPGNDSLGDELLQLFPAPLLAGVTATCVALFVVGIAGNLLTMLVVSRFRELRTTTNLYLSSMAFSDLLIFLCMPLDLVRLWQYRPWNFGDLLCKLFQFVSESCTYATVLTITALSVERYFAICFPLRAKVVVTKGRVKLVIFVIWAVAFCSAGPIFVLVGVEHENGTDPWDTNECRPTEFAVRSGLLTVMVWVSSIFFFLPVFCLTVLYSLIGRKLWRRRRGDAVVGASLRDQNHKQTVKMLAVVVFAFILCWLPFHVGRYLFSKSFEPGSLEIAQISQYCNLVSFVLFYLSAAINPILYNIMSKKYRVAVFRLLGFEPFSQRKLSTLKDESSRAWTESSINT

[18] = target: Voltage-gated inwardly rectifying potassium channel KCNH2 (Homo sapiens, UniProt Q12809); assay: Inhibition of human ERG
Voltage-gated inwardly rectifying potassium channel KCNH2, sequence (Q12809 whole entry): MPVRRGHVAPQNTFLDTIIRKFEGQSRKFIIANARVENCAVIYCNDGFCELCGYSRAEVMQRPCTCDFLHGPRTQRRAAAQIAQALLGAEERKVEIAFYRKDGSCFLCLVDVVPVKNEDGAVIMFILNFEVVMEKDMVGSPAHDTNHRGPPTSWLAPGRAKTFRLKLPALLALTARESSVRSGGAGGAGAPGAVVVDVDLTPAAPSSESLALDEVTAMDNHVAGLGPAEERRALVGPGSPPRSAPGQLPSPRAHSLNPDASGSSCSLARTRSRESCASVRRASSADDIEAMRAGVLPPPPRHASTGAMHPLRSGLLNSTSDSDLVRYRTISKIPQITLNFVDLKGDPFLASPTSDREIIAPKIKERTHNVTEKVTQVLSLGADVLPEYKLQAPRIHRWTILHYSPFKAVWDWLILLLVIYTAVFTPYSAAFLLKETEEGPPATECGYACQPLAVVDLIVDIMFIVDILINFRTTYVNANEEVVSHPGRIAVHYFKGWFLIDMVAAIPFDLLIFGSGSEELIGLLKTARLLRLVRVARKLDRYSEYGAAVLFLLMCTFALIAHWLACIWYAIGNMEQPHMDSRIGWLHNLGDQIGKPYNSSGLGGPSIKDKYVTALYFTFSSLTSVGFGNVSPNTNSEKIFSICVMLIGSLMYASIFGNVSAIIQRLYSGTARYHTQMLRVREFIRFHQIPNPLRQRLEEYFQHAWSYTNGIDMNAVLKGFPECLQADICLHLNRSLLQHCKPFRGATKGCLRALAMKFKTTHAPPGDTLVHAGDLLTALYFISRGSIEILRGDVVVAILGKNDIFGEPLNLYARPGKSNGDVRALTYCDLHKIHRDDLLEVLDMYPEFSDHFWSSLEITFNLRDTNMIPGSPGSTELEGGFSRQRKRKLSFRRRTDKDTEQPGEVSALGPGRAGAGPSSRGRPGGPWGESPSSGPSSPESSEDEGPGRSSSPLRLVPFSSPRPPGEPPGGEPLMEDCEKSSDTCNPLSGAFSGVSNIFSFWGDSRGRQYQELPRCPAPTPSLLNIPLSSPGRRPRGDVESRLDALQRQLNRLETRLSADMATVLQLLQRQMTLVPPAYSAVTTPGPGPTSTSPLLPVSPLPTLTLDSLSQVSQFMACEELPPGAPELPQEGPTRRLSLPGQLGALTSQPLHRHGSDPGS

[19] = test system: Plasmodium berghei; assay: Antimalarial activity against Plasmodium berghei GFP ANKA infected in NMRI mice (Mus musculus) assessed as reduction in parasitaemia at 30 mg/kg, perorally administered through 0.5% MCM/0.1%solutol HS15 formulation 24 hrs post infection for 3 days measured 96 hrs post infection; assay type: functional; set-up: scale not given: the % may be the effect or the level left; details: route oral
[20] = test system: Plasmodium falciparum; assay: microbe, parasite or virus in culture; details: Dd2, 72 h
[21] = Cytotoxicity against human HepG2 cells after 4 days by XTT assay; assay type: cell-based
[22] = test system: Plasmodium berghei; assay: Antimalarial activity against Plasmodium berghei GFP ANKA infected in NMRI mice (Mus musculus) assessed as survival at 50 mg/kg, perorally administered through 0.5% MCM/0.1%solutol HS15 formulation 24 hrs post infection for 3 days measured 96 hrs post infection; assay type: functional; details: route oral
[23] = test system: Plasmodium berghei; assay: Antimalarial activity against Plasmodium berghei GFP ANKA infected in NMRI mice (Mus musculus) assessed as cure rate at 30 mg/kg, perorally administered through 0.5% MCM/0.1%solutol HS15 formulation 24 hrs post infection for 3 days measured on day 30 post infection; assay type: functional; details: route oral
[24] = target: Alpha-2B adrenergic receptor (Homo sapiens, UniProt P18089); assay: Binding affinity to human recombinant alpha2b receptor
[25] = test system: Plasmodium falciparum; assay: Antimalarial activity against Plasmodium falciparum D6 after 48 hrs incubation by [3H]hypoxanthin incorporation assay
[26] = test system: Plasmodium falciparum; assay: Antimalarial activity against Plasmodium falciparum Dd2 after 72 hrs by SYBR green based fluorescence assay; assay type: functional, organism-based; details: Dd2, 72 h
[27] = target: Gastrin/cholecystokinin type B receptor (Homo sapiens, UniProt P32239); assay: Binding affinity to human recombinant cholecystokinin B receptor
Gastrin/cholecystokinin type B receptor, sequence (P32239 whole entry): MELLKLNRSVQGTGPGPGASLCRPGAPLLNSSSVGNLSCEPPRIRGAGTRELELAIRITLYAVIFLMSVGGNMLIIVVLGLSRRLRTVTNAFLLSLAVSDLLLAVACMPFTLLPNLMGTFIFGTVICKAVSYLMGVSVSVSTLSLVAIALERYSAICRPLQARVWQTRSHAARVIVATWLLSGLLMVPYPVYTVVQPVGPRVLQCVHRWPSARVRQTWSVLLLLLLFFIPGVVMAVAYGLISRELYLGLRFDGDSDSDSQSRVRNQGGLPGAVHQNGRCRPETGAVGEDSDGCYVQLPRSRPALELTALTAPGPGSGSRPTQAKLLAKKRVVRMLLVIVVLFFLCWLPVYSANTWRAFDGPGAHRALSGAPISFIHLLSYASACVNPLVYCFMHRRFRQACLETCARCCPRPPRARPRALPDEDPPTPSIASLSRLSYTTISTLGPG

[28] = target: Thromboxane A2 receptor (Homo sapiens, UniProt P21731); assay: Binding affinity to human recombinant thromboxane A2 receptor
Thromboxane A2 receptor, sequence (P21731 whole entry): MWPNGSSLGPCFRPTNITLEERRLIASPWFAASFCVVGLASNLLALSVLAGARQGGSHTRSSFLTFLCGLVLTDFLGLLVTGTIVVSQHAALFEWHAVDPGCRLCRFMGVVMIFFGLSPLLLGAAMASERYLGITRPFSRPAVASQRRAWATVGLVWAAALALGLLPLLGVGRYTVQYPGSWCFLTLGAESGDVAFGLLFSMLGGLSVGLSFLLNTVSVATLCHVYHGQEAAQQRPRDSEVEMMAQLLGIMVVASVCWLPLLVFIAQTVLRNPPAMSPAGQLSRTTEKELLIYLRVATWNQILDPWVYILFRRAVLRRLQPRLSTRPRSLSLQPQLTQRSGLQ

[29] = target: Muscarinic acetylcholine receptor M1 (Homo sapiens, UniProt P11229); assay: Binding affinity to human recombinant muscarinic M1 receptor
[30] = target: Cannabinoid receptor 1 (Homo sapiens, UniProt P21554); assay: Binding affinity to human recombinant cannabinoid 1 receptor
[31] = target: Glucocorticoid receptor (Homo sapiens, UniProt P04150); assay: Binding affinity to human recombinant glucocorticoid receptor
Glucocorticoid receptor, sequence (P04150 whole entry): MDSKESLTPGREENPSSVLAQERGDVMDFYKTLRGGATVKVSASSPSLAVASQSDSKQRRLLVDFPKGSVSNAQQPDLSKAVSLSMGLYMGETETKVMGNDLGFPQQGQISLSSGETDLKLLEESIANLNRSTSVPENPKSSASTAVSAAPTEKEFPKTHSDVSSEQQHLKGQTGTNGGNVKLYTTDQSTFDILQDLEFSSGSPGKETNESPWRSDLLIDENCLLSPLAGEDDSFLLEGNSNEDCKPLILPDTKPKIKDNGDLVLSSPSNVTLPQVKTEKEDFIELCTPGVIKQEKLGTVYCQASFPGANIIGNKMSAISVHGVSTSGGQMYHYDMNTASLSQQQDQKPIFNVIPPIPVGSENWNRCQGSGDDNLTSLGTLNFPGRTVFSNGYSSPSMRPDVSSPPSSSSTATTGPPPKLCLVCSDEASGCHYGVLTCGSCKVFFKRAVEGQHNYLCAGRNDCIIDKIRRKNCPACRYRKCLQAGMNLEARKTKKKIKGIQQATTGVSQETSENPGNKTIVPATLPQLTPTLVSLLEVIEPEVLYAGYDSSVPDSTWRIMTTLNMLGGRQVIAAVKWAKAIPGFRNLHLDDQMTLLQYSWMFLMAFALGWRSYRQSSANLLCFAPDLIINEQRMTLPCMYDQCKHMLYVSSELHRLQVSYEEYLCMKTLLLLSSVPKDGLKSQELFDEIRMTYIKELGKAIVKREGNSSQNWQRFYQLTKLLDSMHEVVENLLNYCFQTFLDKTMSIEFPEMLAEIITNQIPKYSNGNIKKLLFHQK

[32] = Intrinsic clearance in rat liver microsome; assay type: ADME; details: liver microsomes
[33] = test system: Plasmodium falciparum; assay: Antimalarial activity against chloroquine and pyrimethamine-resistant Plasmodium falciparum V1/S after 48 hrs incubation by [3H]hypoxanthine incorporation assay
[34] = test system: Plasmodium berghei; assay: Antimalarial activity against Plasmodium berghei GFP ANKA infected in NMRI mice (Mus musculus) assessed as reduction in parasitaemia dosed in ETPGS formulation 1 day post infection measured 72 hrs post infection; assay type: functional
[35] = Clearance in CD1 mouse at 5.4 mg/kg, iv; assay type: ADME, organism-based; set-up: dose 5.4 mg/kg, route intravenous; details: in vivo
[36] = test system: Plasmodium falciparum; assay: microbe, parasite or virus in culture; details: Dd2, 72 h; remark: listed apart in the source
[37] = target: Histamine H2 receptor (Homo sapiens, UniProt P25021); assay: Binding affinity to human recombinant histamine H2 receptor
[38] = Intrinsic clearance in mouse liver microsome; assay type: ADME; details: liver microsomes
[39] = Volume of distribution at steady state in CD1 mouse at 5.4 mg/kg, iv; assay type: ADME, organism-based; set-up: dose 5.4 mg/kg, route intravenous; details: in vivo, read-out: Vdss
[40] = test system: Plasmodium falciparum; assay: Antimalarial activity against NITD609-resistant Plasmodium falciparum Dd2 Clone1 bearing P-type ATPase4 I398F and P990R mutations after 72 hrs by SYBR green based fluorescence assay; assay type: functional, organism-based; details: Dd2, 72 h
[41] = Oral bioavailability in Wistar rat at 23.7 mg/kg; assay type: ADME, organism-based; details: in vivo
[42] = test system: Plasmodium falciparum; assay: Antimalarial activity against Plasmodium falciparum 3D7 after 48 hrs incubation by [3H]hypoxanthin incorporation assay
[43] = Solubility in pH 6.8 nuffer; assay type: physicochemical; details: buffer
[44] = target: Endothelin-1 receptor (Homo sapiens, UniProt P25101); assay: Binding affinity to human recombinant endothelin A receptor
[45] = Intrinsic clearance in monkey liver microsome; assay type: ADME, Macaca mulatta; details: rhesus monkey, liver microsomes
[46] = target: Histamine H1 receptor (Homo sapiens, UniProt P35367); assay: Binding affinity to human recombinant histamine H1 receptor
[47] = test system: Plasmodium falciparum; assay: Antimalarial activity against Plasmodium falciparum isolates after 42 hrs; assay type: functional, organism-based
[48] = target: Adenosine receptor A2a (Homo sapiens, UniProt P29274); assay: Binding affinity to human recombinant adenosine 2a receptor
[49] = target: Neuropeptide Y receptor type 1 (Homo sapiens, UniProt P25929); assay: Binding affinity to human recombinant neuropeptide Y1 receptor

## C[C@H]1Cc2c([nH]c3cc(Cl)c(F)cc23)[C@@]2(N1)C(=O)Nc1ccc(Cl)cc12 [CIPARGAMIN]
[1]
  IC50: […]
[2]
  IC50: […]
[3]
  Cmax: 9.17 µM
[4]
  IC50: > 30 µM
[5]
  IC50: […]
[6]
  Activity: […]
[7]
  IC50: > 30 µM
[8]
  IC50: 0.0032 µM
[9]
  IC50: > 30 µM
[10]
  IC50: […]
[11]
  AUC(0-inf): 23.9 µM·h
[12]
  IC50: > 30 µM
[13]
  IC50: […]
[14]
  IC50: 0.0037 µM
[15]
  IC50: […]
[16]
  Activity: 50%
[17]
  IC50: > 30 µM
[18]
  IC50: 30.4 µM
[19]
  Activity: […]
[20]
  IC50: […]
[21]
  CC50 at 96 h: > 25 µM
[22]
  Survival: 30 days
[23]
  Activity: 90%
[24]
  IC50: […]
[25]
  IC50: […]
[26]
  IC50: 0.00044 µM
[27]
  IC50: > 30 µM
[28]
  IC50: > 30 µM
[29]
  IC50: […]
[30]
  IC50: […]
[31]
  IC50: > 30 µM
[32]
  CLint scaled: 5.8 mL/min/kg
[33]
  IC50: 0.0014 µM
[34]
  ED50: 1.2 mg/kg
  ED99: 5.3 mg/kg
[35]
  clearance: 9.75 mL/min/kg
[36]
  IC50: 0.00157 µM
[37]
  IC50: […]
[38]
  CLint scaled: 49.7 mL/min/kg
[39]
  Vd: 2.11 L/kg
[40]
  IC50: 0.0109 µM
[41]
  bioavailability: […]
[42]
  IC50: 0.0007 µM
[43]
  solubility: […]
[44]
  IC50: > 30 µM
[45]
  CLint scaled: 6.05 mL/min/kg
[46]
  IC50: […]
[47]
  inhibition: Active
[48]
  IC50: > 30 µM
[49]
  IC50: […]
